Results from paper PMC10714400, “Antimicrobial Peptide–Peptoid Hybrids with and without Membrane Disruption” (ACS Infectious Diseases, 2023).
Like-named read-outs stand apart in the source and are kept apart here.

Columns and labels:
PA14 2P4 (pmrB) = test system: PA14 2P4 (pmrB)
Summary of the method: (§1)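 Microdilution MIC in MH broth; inocula from overnight LB cultures at 37 °C, about 5 × 10^5 CFU per well. Plates stood ca. 18 h at 37 °C, then MTT (1 mg/mL) was added for 20–30 min at RT, and wells remaining yellow marked inhibition.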

K. pneumoniae OXA-48 = test system: K. pneumoniae OXA-48
Summary of the method: as §1

E. coli W3110 = test system: E. coli W3110
Summary of the method: as §1

[1] = test system: ZEM9A (clinical MDR P. aeruginosa isolate)
Summary of the method: as §1

A. baumannii ATCC19606 = test system: A. baumannii ATCC19606
Summary of the method: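 MTT added (20–30 min, room temperature); MIC read by eye as lowest concentration inhibiting visible growth (yellow). Polymyxin B positive control from 16 μg/mL.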

S. aureus Newman = test system: S. aureus Newman
Summary of the method: as §1

S. epidermis = test system: S. epidermis
Summary of the method: as §1

S. maltophilia = test system: S. maltophilia
Summary of the method: as §1

P. aeruginosa PA14 = test system: P. aeruginosa PA14
Summary of the method: as §1

B. cenocepacia = test system: B. cenocepacia
Summary of the method: as §1

[2] = Circular dichroism, α-helical content; assay type: physicochemical; conditions: 0.1 mg/mL; for CD %α with 5 mM DPC: 10 mM phosphate buffer pH 7.4, 5 mM DPC; for CD %α with 20% TFE: 10 mM phosphate buffer pH 7.4, 20% TFE
[3] = test system: human red blood cells (hRBC); assay: Minimum hemolytic concentration (MHC); assay type: cell-based; conditions: CSV
Source text: We also measured minimal hemolysis concentrations (MHC) on human red blood cells by serial 2-fold dilution as an indication of toxicity against eukaryotic cells (Table 1).

With “H-KKLLKLLKLLL-NH2 [ln65, reference compound]” the “MIC PA14 2P4 (pmrB)” value (PA14 2P4 (pmrB); MH pH 7.4, 16–20 h at 37 °C) was 32 µg/mL, the “MIC P. aeruginosa PA14 2P4” value (PA14 2P4 (pmrB); Table S3, […] MH at pH 8.5) was 2 to 4 µg/mL and the “MIC K. pneumoniae OXA-48, […] MH at pH 8.5” value (K. pneumoniae OXA-48; CSV, […] MH at pH 8.5) was 4 ug/mL. The “MIC K. pneumoniae OXA-48, full MH at pH 7.4” value (K. pneumoniae OXA-48; CSV, full MH at pH 7.4) was 2 ug/mL, the “MIC K. pneumoniae OXA-48” value (K. pneumoniae OXA-48; MH pH 7.4, 16–20 h at 37 °C) was 2 µg/mL and the “MIC K. pneumoniae OXA-48” value (K. pneumoniae OXA-48; Table S3, […] MH at pH 8.5) was 4 µg/mL. The “MIC E. coli W3110, […] MH at pH 7.4” value (E. coli W3110; CSV, […] MH at pH 7.4) was 2 ug/mL, the “MIC E. coli W3110, […] MH at pH 8.5” value (E. coli W3110; CSV, […] MH at pH 8.5) was 2 ug/mL and the “MIC E. coli W3110, full MH at pH 7.4” value (E. coli W3110; CSV, full MH at pH 7.4) was 4 ug/mL. For the same substance, the “MIC E. coli W3110 […] 7.4” value (E. coli W3110; Table S2, […] MH, pH 7.4) was 2 µg/mL, the “MIC E. coli W3110 […] 8.5” value (E. coli W3110; Table S2, […] MH, pH 8.5) was 2 µg/mL and the “MIC E. coli W3110 Full MH 7.4” value (E. coli W3110; Table S2, full MH, pH 7.4) was 4 µg/mL. For the same substance, the “MIC E. coli W3110 Full MH 8.5” value (E. coli W3110; Table S2, full MH, pH 8.5) was 8 µg/mL, the “MIC P. aeruginosa ZEM9A, […] MH at pH 8.5” value ([1]; CSV, […] MH at pH 8.5) was 4 ug/mL and the “MIC P. aeruginosa ZEM9A, full MH at pH 7.4” value ([1]; CSV, full MH at pH 7.4) was 4 ug/mL. For the same substance, the “MIC P. aeruginosa ZEM9A” value ([1]; Table S3, […] MH at pH 8.5) was 4 µg/mL, the “MIC A. baumannii ATCC19606, […] MH at pH 7.4” value (A. baumannii ATCC19606; CSV, […] MH at pH 7.4) was 4 ug/mL and the “MIC A. baumannii ATCC19606, […] MH at pH 8.5” value (A. baumannii ATCC19606; CSV, […] MH at pH 8.5) was 2 ug/mL. For the same substance, the “MIC A. baumannii ATCC19606, full MH at pH 7.4” value (A. baumannii ATCC19606; CSV, full MH at pH 7.4) was 3 ug/mL, the “MIC A. baumannii ATCC19606, full MH at pH 8.5” value (A. baumannii ATCC19606; CSV, full MH at pH 8.5) was 8 ug/mL and the “MIC A. baumannii ATCC19606 […] 7.4” value (A. baumannii ATCC19606; Table S2, […] MH, pH 7.4) was 4 µg/mL. The “MIC A. baumannii ATCC19606 […] 8.5” value (A. baumannii ATCC19606; Table S2, […] MH, pH 8.5) was 2 µg/mL, the “MIC A. baumannii ATCC19606 Full MH 7.4” value (A. baumannii ATCC19606; Table S2, full MH, pH 7.4) was 2 to 4 µg/mL and the “MIC A. baumannii ATCC19606 Full MH 8.5” value (A. baumannii ATCC19606; Table S2, full MH, pH 8.5) was 8 µg/mL. For the same substance, the “MIC A. baumannii ATCC19606 […]” value (A. baumannii ATCC19606; diluted MH ([…] MH, pH 8.5) per Table 1 footnote b, 16–20 h at 37 °C) was 4 µg/mL, the “MIC A. baumannii ATCC19606 Full” value (A. baumannii ATCC19606; full MH, pH 7.4, 16–20 h at 37 °C) was 2 to 4 µg/mL and the “MIC S. aureus Newman, […] MH at pH 8.5” value (S. aureus Newman; CSV, […] MH at pH 8.5) was 2 ug/mL. The “MIC S. aureus Newman, full MH at pH 7.4” value (S. aureus Newman; CSV, full MH at pH 7.4) was 2 ug/mL, the “MIC S. aureus Newman” value (S. aureus Newman; MH pH 7.4, 16–20 h at 37 °C) was 2 µg/mL and the “MIC S. aureus Newman” value (S. aureus Newman; Table S3, […] MH at pH 8.5) was 2 µg/mL. The “MIC S. epidermis, […] MH at pH 8.5” value (S. epidermis; CSV, […] MH at pH 8.5) was 1 ug/mL, the “MIC S. epidermis, full MH at pH 7.4” value (S. epidermis; CSV, full MH at pH 7.4) was 2 ug/mL and the “MIC S. epidermis” value (S. epidermis; MH pH 7.4, 16–20 h at 37 °C) was 2 µg/mL. For the same substance, the “MIC S. epidermis” value (S. epidermis; Table S3, […] MH at pH 8.5) was 1 µg/mL, the “MIC S. maltophilia, […] MH at pH 8.5” value (S. maltophilia; CSV, […] MH at pH 8.5) was 4 ug/mL and the “MIC S. maltophilia, full MH at pH 7.4” value (S. maltophilia; CSV, full MH at pH 7.4) was 2 ug/mL. For the same substance, the “MIC S. maltophilia” value (S. maltophilia; MH pH 7.4, 16–20 h at 37 °C) was 2 µg/mL, the “MIC S. maltophilia” value (S. maltophilia; Table S3, […] MH at pH 8.5) was 4 µg/mL and the “MIC P. aeruginosa PA14, […] MH at pH 8.5” value (P. aeruginosa PA14; CSV, […] MH at pH 8.5) was 2 ug/mL. The “MIC P. aeruginosa PA14, full MH at pH 7.4” value (P. aeruginosa PA14; CSV, full MH at pH 7.4) was 3 ug/mL, the “MIC P. aeruginosa PA14” value (P. aeruginosa PA14; MH pH 7.4, 16–20 h at 37 °C) was 2 to 4 µg/mL and the “MIC P. aeruginosa PA14” value (P. aeruginosa PA14; Table S3, […] MH at pH 8.5, 16-20 hours at 37 °C) was 2 µg/mL. The “MIC B. cenocepacia, full MH at pH 7.4” value (B. cenocepacia; CSV, full MH at pH 7.4) was greater than 32 ug/mL, the “MIC B. cenocepacia” value (B. cenocepacia; MH pH 7.4, 16–20 h at 37 °C) was greater than 32 µg/mL and the “CD %α with 5 mM DPC” value ([2]; DichroWeb, Contin-LL) was 73%. The “CD %α with 20% TFE” value ([2]; DichroWeb, Contin-LL) was 64%, the “CD %α with 5 mM DPC” value ([2]; Table S2) was 73% and the “CD %α with 20% TFE” value ([2]; Table S2) was 64%. It also gave an MHC [3] of 125 µg/mL.
